The assay deals with PrP (Mus musculus, UniProt P04925). In kind it is cell-based.

This passage reports PrP glycoform pattern results from US20110311533A1 (priority 2010, published 2011).

Sequence of PrP (P04925 23-230 limits assumed): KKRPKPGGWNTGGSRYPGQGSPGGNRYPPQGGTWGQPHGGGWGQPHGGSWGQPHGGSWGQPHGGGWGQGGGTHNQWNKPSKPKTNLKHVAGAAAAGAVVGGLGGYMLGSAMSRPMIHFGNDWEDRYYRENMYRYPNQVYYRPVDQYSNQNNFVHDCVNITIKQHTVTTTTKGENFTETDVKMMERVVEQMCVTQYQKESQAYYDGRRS

Turning to Tunicamycin, the PrP glycoform pattern entry was “accumulate the non-glycosilated specie of PrP”.
